Data on 18 compounds can be found in US5434292A, “Phenylalkanoic acid derivatives, process for producing the same and process for separating optical isomers thereof” (Hisamitsu Pharmaceutical Co., Inc., priority 1994, dated 1995).

Like-named read-outs stand apart in the source and are kept apart here.

What all share (format): in vivo, Wistar-strain male rats
Series [1] has as its system Carrageenin-induced paw edema. In words: Carrageenin-induced paw edema experiment using rats. The note with it: Rattus norvegicus, 3 h; for inhibition in vivo at 0.2 mg/kg / inhibition in vivo at 0.5 mg/kg / ED50: oral; for inhibition in vivo at 0.2 mg/kg / inhibition in vivo at 0.5 mg/kg: three hours after induction, vs control; for ED50: edema inhibition three hours after induction. How it is done: Pharmacological Experiment 1 (Carrageenin-induced paw edema experiment using rats)
There were used groups each consisting of seven Wistar-strain male rats each weighing about 150 g as test animals (subjects). One hour later than said administration, 0.1 ml of 1%λ-carrageenin was hypodermically injected to the paw of right hind leg of each of the test animals to induce the reaction. Thereafter, each test animal so injected was measured for its paw volume with the lapse of time.
The experimental results were indicated in terms of edema inhibition rates and effective doses (ED50) found by comparing the edema rate of each test rat with that of each rat of the control group (to which no test compounds were orally administered) three hours after having induced the reaction.

Series [2] deals with adjuvant arthritis. Nature of the series: Adjuvant arthritis experiment using rats. Conditions: oral; for ED50: Rattus norvegicus, 168 h, once a day for 7 days. How it is done:
Pharmacological Experiment 4 (Adjuvant arthritis experiment using rats)
0.6 mg/0.1 ml of Mycobacterium butyricum suspended in liquid paraffin were subcutaneously administered to the root of the tall of each of Wistar-strain male rats each weighing about 200 g (for the compound of Example 2 and comparative compound 1) or 240 g (for the compound of Example 24 and comparative compounds 4 and 5). […] The test compounds were orally administered once a day for 7 days to the selected rats in the predetermined doses, respectively, as indicated in the following Table 7. The inhibitory effect on the adjuvant arthritis was investigated referring, as a guide to the investigation, to the inhibition effect on swelling of the hind paws of each of the tested rats. In each of the tested rats, the inhibition rate was calculated by comparing the swelling volume ratio of the tested rat determined by the following formula with that of each rat of the control group (to which no test compounds were orally administered).
Swelling volume ratio = {(paw volume measured
26 days (*a) after the subcutaneous administration) -
(original or normal paw volume)}/{(paw volume
measured 19 days (*b) after the subcutaneous
administration) - (original or normal paw volume)} × 100
*a: 24 days later, for the compound of Example 24 and comparative
*b: 17 days later, for the compound of Example 24 and comparative

Series [3] has as its system threshold of pain of the paws. Nature of the series: Randall-Selitto method using rats (yeast-induced inflammatory pain). The note with it: oral; for ED50: Rattus norvegicus, analgesic effect; for Inhibition rate: area under the curve of pain threshold vs control. As for the experimental part: Pharmacological Experiment 2 (Randall-Selitto method using rats as subjects)
There were used groups each consisting of seven Wistar-strain male rats each weighing about 140 g. The rats were hypodermically injected with 0.1 ml of 20% yeast suspension at the paw of their right hind leg to induce inflammatory edema, and the threshold of pain of the paws was measured with the lapse of time in accordance with the Randall-Selitto method. Three hours after the reaction had been induced, the dose of the test compounds was orally administered to each rat as shown in the following Table 5.
In Table 5, the results were expressed in terms of inhibition rates and effective amounts (ED50) for the tested groups with respect to those of the control group (to which the compound was not orally administered) after the area under the curve had been measured subsequently to the administration.

The nature of series [4]: Gastric mucous membrane trouble experiment using rats. Conditions: rat, in vivo. How it is done: (§1) Pharmacological Experiment 3 (Gastric mucous membrane trouble experiment using rats)
(§2) There were used groups each consisting of eight Wistar-strain male rats each weighing about 160 g as test animals (subjects). The test compounds were orally administered to the test animals in the predetermined doses, respectively, as indicated in the following Table 6 after their fasting for 18 hours. Thirty five hours later than said administration, the rats so administered were dissected to remove therefrom the stomachs each of which was then fixed, cut along the greater curvature thereof and visually observed to find whether ulcers were formed therein. Further, 50% gastric ulcer-inducing doses (UD50) were determined.

Series [5] deals with Gastric mucous membrane. The description is as above. Conditions: oral, 3.0 mg/kg; fasted 18 hours; groups of eight rats. How it is done:
as §1, §2

Where [6] appears, read: read-out: Inhibition rate (edema inhibition rate).
The mark [7] stands for this setting: 1.0 mg/kg once a day for 7 days.

As for `CC(C(=O)O)c1ccc(C[C@@H]2CCCC[C@H]2O)c(Cl)c1` (relative stereo) [Example 24, 2-[3-chloro-4-(trans-2-hydroxycyclohexane-1-ylmethyl)phenyl]propionic acid], in series [1] (setting [6]), the inhibition in vivo at 0.2 mg/kg was 33.4%. In series [1] (setting [6]), the inhibition in vivo at 0.5 mg/kg came out at 47.1%. Besides, the “Inhibition rate (swelling of hind paws)” value in series [2] (0.1 mg/kg once a day for 7 days) is recorded as 34.2%; in series [2] (0.3 mg/kg once a day for 7 days), 49.9%; in series [2] (setting [7]) it was 65.9%.
Consider `CC(C(=O)O)c1ccc(C[C@H]2CCCC[C@@H]2O)c(F)c1` (relative stereo) [Example 31], for which the inhibition in vivo at 0.5 mg/kg in series [1] (setting [6]) amounted to 54%.
Still for that read-out and setting: for `CC(C(=O)O)c1ccc(C[C@H]2CCCC[C@H]2O)c(F)c1` (relative stereo) [Example 32] the value was 37.9%.
With `CC(C(=O)O)c1ccc(C[C@@H]2CCC[C@H]2O)c(Cl)c1` (relative stereo) [Example 40, 2-[3-chloro-4-(trans-2-hydroxycyclopentane-1-ylmethyl)phenyl] propionic acid], in series [1] (setting [6]), the inhibition in vivo at 0.2 mg/kg was 34.5% and the inhibition in vivo at 0.5 mg/kg worked out at 56.3%.
Regarding `CC(C(=O)O)c1ccc(C[C@H]2CCC[C@@H]2O)c(F)c1` (relative stereo) [Example 46], the inhibition in vivo at 0.5 mg/kg in series [1] (setting [6]) was 60.5%.
Take `CC(C(=O)O)c1ccc(C[C@H]2CCC[C@H]2O)c(F)c1` (relative stereo) [Example 47]: the inhibition in vivo at 0.5 mg/kg in series [1] (setting [6]) came out at 45.6%.
In the case of `CC(C(=O)O)c1ccc(C[C@@H]2CCCC[C@H]2O)cc1` (relative stereo) [compound 5, 2[4-(trans-2-hydroxycyclohexane-1-ylmethyl)phenyl]propionic acid, reference compound], in series [1] (setting [6]), the inhibition in vivo at 0.5 mg/kg stood at 33.7%. For the same compound, the “Inhibition rate (swelling of hind paws)” value came out at 42.7% in series [2] (3.0 mg/kg once a day for 7 days) and 56.4% in series [2] (10.0 mg/kg once a day for 7 days).
Turning to `CC(C(=O)O)c1ccc(C[C@@H]2CCC[C@H]2O)cc1` (relative stereo) [compound 6, 2[4-(trans-2-hydroxycyclopentane-1-ylmethyl)phenyl]propionic acid, reference compound], in series [1] (setting [6]), the inhibition in vivo at 0.2 mg/kg was found to be 22.5% and the inhibition in vivo at 0.5 mg/kg came to 38.5%.
On to `CC(C(=O)O)c1ccc(CC2CCCCC2=O)c(Cl)c1` (stereo not drawn) [Example 2, 2-[3-chloro-4-(2-oxocyclohexane-1-ylmethyl)phenyl]propionic acid], for which the inhibition in vivo at 0.2 mg/kg in series [1] (setting [6]) was 21.8%. For the same compound, the inhibition in vivo at 0.5 mg/kg in series [1] (setting [6]) was determined as 49.5%. The median effective dose (ED50) in series [1] was found to be 0.6 mg/kg; in series [3], 0.3 mg/kg; in series [2], 0.5 mg/kg. Further, the results for the Inhibition rate in series [3] (0.3 mg/kg) and in series [3] (1.0 mg/kg) were 54.3% and 75.1%, respectively. In addition, the TD50 at 35 h in series [4] (po) came to 5.6 mg/kg. Besides, in series [5], the “Ulcer formation (incidence)” value is given as 2/8. Further, the “Inhibition rate (swelling of hind paws)” value in series [2] (setting [7]) amounted to 62.1%.
In the case of `CC(C(=O)O)c1ccc(CC2CCCC2=O)c(Cl)c1` (stereo not drawn) [Example 3, 2-[3-chloro-4-(2-oxocyclopentane-1-ylmethyl)phenyl]propionic acid], in series [1] (setting [6]), the inhibition in vivo at 0.2 mg/kg was 20.2% and the inhibition in vivo at 0.5 mg/kg was found to be 48.5%. In series [3] (0.3 mg/kg), this compound registered an Inhibition rate of 44.7%. Moreover, the Inhibition rate in series [3] (1.0 mg/kg) is listed as 69.3%.
Turning to `CC(C(=O)O)c1ccc(CC2CCCC2=O)c(F)c1` (stereo not drawn) [Example 6], the inhibition in vivo at 0.5 mg/kg in series [1] (setting [6]) amounted to 52.2%. Also, in series [5], the “Ulcer formation (incidence)” value is 1/8.
`CC(C(=O)O)c1ccc(CC2CCCCC2=O)c(F)c1` (stereo not drawn) [Example 10]: the inhibition in vivo at 0.5 mg/kg in series [1] (setting [6]) stood at 50.2%.
As for `CC(C(=O)O)c1ccc(C[C@H]2CCCC[C@@H]2O)c(Cl)c1` (stereo partly drawn) [Example 28, 2-[3-chloro-4-(trans-(1R, 2S)-2-hydroxycyclohexane-1-yl-methyl)phenyl]propionic acid], in series [1] (setting [6]), the inhibition in vivo at 0.2 mg/kg is 38.3% and the inhibition in vivo at 0.5 mg/kg was 54.8%. In addition, the Inhibition rate in series [3] (0.3 mg/kg) is on record as 62.5%. The compound further yielded an Inhibition rate in series [3] (1.0 mg/kg) of 80.9%.
Consider `CC(C(=O)O)c1ccc(C[C@H]2CCC[C@@H]2O)c(Cl)c1` (stereo partly drawn) [Example 44, 2-[3-chloro-4-(trans-(1R, 2S)-2-hydroxycyclopentane-1-ylmethyl)phenyl]propionic acid], for which, in series [1] (setting [6]), the inhibition in vivo at 0.2 mg/kg came to 42.2% and the inhibition in vivo at 0.5 mg/kg was 65.5%.
For `CC(C(=O)O)c1ccc(CC2CCCC2=O)cc1` (stereo not drawn) [compound 1, Loxoprofen, reference compound], the inhibition in vivo at 0.5 mg/kg in series [1] (setting [6]) was found to be 23.9%. For the same compound, the ED50 in series [1] came out at 1.5 mg/kg; in series [3], 1.5 mg/kg; in series [2] it was 8.1 mg/kg. In series [3] (1.0 mg/kg), this compound showed an Inhibition rate of 49.7%. In addition, in series [4] (oral, fasted 18 hours, read-out: UD50 (50% gastric ulcer-inducing dose)), the TD50 at 35 h was 4.7 mg/kg. In addition, the “Ulcer formation (incidence)” value in series [5] is recorded as 4/8. Moreover, the “Inhibition rate (swelling of hind paws)” value in series [2] (setting [7]) came to 1.3%.
Take `CC(C(=O)O)c1ccc(CC2CCCCC2=O)cc1` (stereo not drawn) [compound 2, 2[4-(2-oxocyclohexane-1-ylmethyl)phenyl]propionic acid, reference compound]: the inhibition in vivo at 0.5 mg/kg in series [1] (setting [6]) was 27.1%. In series [3] (1.0 mg/kg), this compound had an Inhibition rate of 44.3%.
`CC(C(=O)O)c1ccc(CC2CCCC2)c(Cl)c1` (stereo not drawn) [compound 3, 2(3-chloro-4-cyclopentylmethylphenyl)propionic acid, reference compound]: the inhibition in vivo at 0.5 mg/kg in series [1] (setting [6]) stood at 10.2%. In series [3] (1.0 mg/kg), this compound yielded an Inhibition rate of 18.4%.
Take `COc1ccc2c(c1)c(CC(=O)O)c(C)n2C(=O)c1ccc(Cl)cc1` [compound 4, Indomethacin, reference compound]: the inhibition in vivo at 5 mg/kg in series [1] (po, read-out: Inhibition rate (edema inhibition rate)) came out at 51.3%. In series [3] (5.0 mg/kg), the Inhibition rate came out at 76.3%. Also, the “Inhibition rate (swelling of hind paws)” value in series [2] (setting [7]) was determined as 58.7%.

The term ED50 denotes the dose at which the effect has come halfway, by size or by number of responders.
